Data from patent US6740636B2 (priority 2000, dated 2004).

Legend:
[1] = tested on: recipient Lewis rats given donor ACI rat grafts; assay: Heterotopic heart transplant rejection model (ACI donor, Lewis recipient); assay type: in vivo; details: cyclosporin A only
Text: In this assay an increase in allograft survival time corresponds to a decrease in heart transplant rejection in the recipient Lewis rats given donor ACI rat grafts.
Adult male, specific pathogen-free ACI (RT1a) and Lewis (RT1l) rats (Charles River, Boston, Mass.) weighing 200 to 250 g were used as donors and recipients, respectively, in these studies. Vascularized cardiac allografts were heterotopically transplanted into the abdomen of recipient rats using a modification (Nisco, S. et al., (1994), supra) of the technique of Ono and Lindsay (Ono, K. et al., (1969), supra). […] Abdominal allografts were palpated on a daily basis to assess graft function, and rejection was deemed complete when palpable ventricular contractions ceased.
The transplanted hearts were evaluated daily for signs of rejection over the course of the study.

[2] = tested on: allogeneic heart transplants; assay: Histology, immunohistochemistry (ED1) and rejection score of allogeneic heart transplants 3 days after transplantation; assay type: in vivo, rat
Procedure: Transplanted hearts were removed under deep anesthesia, quickly blotted free of blood, weighed, and then processed as needed for histology and immunohistochemistry. The organs were cut into 1-mm slices and either immersion-fixed in 4% formaldehyde in phosphate buffered saline (PBS) pH 7.35, (PBS: 99 mM NaH2PO4, 108 mM NaH2PO4 and 248 mM NaCl) for 24 h or fixed in methacarn for 8 h and embedded in paraffin. Light microscopy was performed on 3 μm sections stained by periodic acid-Schiff or Goldner-Elastica. Light microscopy was performed on allogeneic heart transplants 3 days after transplantation.
The ED1 monoclonal antibody (Serotec/Camon) was used on methacarn fixed paraffin embedded tissue (3 μm) to stain for rat monocytes/macrophage cells. An alkaline phosphatase anti-alkaline phosphatase detection system was used for visualization (Dako). Controls that omit the first or second antibody for each section were performed for negative staining. […]
Mild acute rejection (score: 1) was characterized by a sparse interstitial mononuclear infiltrate often accentuated in perivascular spaces. […] The rejection score was calculated for every tissue block and an average score was calculated from the different blocks for every transplanted heart as rejection processes tended to be focal.

Substance: cyclosporin A
- mean allograft survival time ([1]; 2.5 mg/kg by gavage once per day for duration of study): 7.3±0.5 days
- mean allograft survival time ([1]; 10 mg/kg by gavage once per day for four days): 12.9±0.7 days
- immunohistology for ED1-positive monocytes/macrophages in allogeneic heart transplants [2]: inflammatory cell infiltrate was focal and was composed primarily of ED-1 positive cells
